# Results from publication PMC8160456, “Molecular Mechanism of Citrate Efflux by the Mitochondrial Citrate Transporter CT in Filamentous Fungus Mucor circinelloides WJ11” (Frontiers in Microbiology, 2021).
# Molecular target: T1, CT (mitochondrial citrate transporter) (Mucor circinelloides, UniProt S2JNX7)
# T1 construct: gene HMPREF1544_02933; complete ct gene, codon-optimised, pET30a(+) NdeI-ATG-ct-Histag-stop-HindIII (C-terminal His tag kept); E. coli BL21(DE3) inclusion bodies, urea-solubilised, Ni column, renatured, reconstituted in liposomes; about 32 kDa; three Mtc domains 10-104, 106-199, 209-296
# T1 sequence (S2JNX7 1-301): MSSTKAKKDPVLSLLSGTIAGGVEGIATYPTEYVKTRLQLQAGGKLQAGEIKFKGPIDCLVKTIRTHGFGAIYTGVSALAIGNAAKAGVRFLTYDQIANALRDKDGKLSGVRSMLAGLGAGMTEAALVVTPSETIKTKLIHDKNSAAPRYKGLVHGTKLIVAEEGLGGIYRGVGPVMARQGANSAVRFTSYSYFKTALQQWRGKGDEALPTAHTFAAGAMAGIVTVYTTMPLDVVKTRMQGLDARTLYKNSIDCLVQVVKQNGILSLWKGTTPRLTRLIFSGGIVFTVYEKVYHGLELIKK
# Assay: inhibition of […]citrate/citrate exchange in CT-reconstituted liposomes
# Format: biochemical
# Conditions: 20 mM inhibitor; 0.01 mM [14C]citrate outside, 10 mM citrate inside; 2 min
compound,measurement,value
Cc1ncc(COP(=O)(O)O)c(C=O)c1O [pyridoxal-5'-phosphate],inhibition at 20 mM,This activity was inhibited strongly by PLP
